Test system: ySB267 (OSR4p-SEC4, Ca.Ste2)
Test: Peptide concentration-dependent growth of ySB267
Assay type: cell-based, Saccharomyces cerevisiae
Settings: ySB267, tested concentrations, 20 h

With GFRLTNFGYFEPG [Ca peptide] the “Peptide concentration above which maximum growth rate was reached” value was over 2.5 nM.

Reference: article PMC8811955 (Biochemistry, 2022)
